Assay results from US20040044281A1, “Systems and methods for assessing blood flow in a target tissue” (priority 2002, published 2004).
“And” between values parts separate entries of the source, which are not always exact repeats. Equal entries are not always repeated.

Test system: tumor blood flow
Assay: DCE-MRI tumor blood flow estimation pre- and post-treatment in patients of a phase I trial
Assay type: in vivo, human
Parameters: Change tgp / Change Gpeak / Change tgp10 / Change E: unit not given here
Conditions: individual patients; for Post-treatment E (enhancement) / Post-treatment Gpeak (gradient peak) / Post-treatment tgp10 (time till gradient drops to 10% of Gpeak) / Post-treatment tgp (time to gradient peak): DCE-MRI 4-6 hrs after infusion, tumor ROI; for Change E / Change Gpeak / Change tgp / Change tgp10: post minus pre-treatment
Procedure: The above equation (4) for Srel can be solved for the concentration variable C if the baseline set of MR image data set is set equal to Sbaseline, and the post MR sets of image data is set equal to the variable Spostcontrast. Concentration C can be calculated on a pixel by pixel or voxel by voxel basis and then averaged resulting in a data set of Concentration C as a function of time. A shown in Block 50 of FIG. 1, the mathematical derivative of Concentration C is determined, preferably by fitting a curve through the concentration data set and then taking the derivative of the curve equation to acquire a gradient curve. The gradient curve represents the rate of change of the tissue concentration of the contrast agent in the ROI. As shown in block 60 of FIG. 1, the maximum value of the rate of change of concentration per time (dC/dt) or Gpeak, is then determined. Thus, Gpeak, which is the magnitude of the first derivative of the concentration curve, can be employed as a flow analog that maintains a high correlation with flow with minimal sensitivity to variations in volume Ve. MRI acquisition techniques, coupled with image analysis techniques (e.g., intensity, rate of change of intensity), facilitate determining the efficacy of a treatment.
With A=40 mMol·sec (the area under curve without recirculation), B=0.5 mMol (the equilibrium concentration), and tp was the time to peak. […] In each case flow F was varied from 0.001 to 0.03 ml/sec/g. Five parameters were calculated from each curve as shown for example purposes in FIG. 5. Magnitude of the first derivative peak (Gpeak), time from bolus arrival to first derivative peak (tgp,) time for gradient to drop to 10% of peak value (tgp10,), the concentration at tgp10 (denoted CE), and initial area under the CT curve from bolus arrival to 60 sec afterwards (IAUC) (Evelhoch, 1999.
DCE-MRI. Six patients were studied using a 1.5T scanner (Siemens Magnetom Vision). Perfusion studies were obtained with a single-slice Fast Low Angle Shot (FLASH) sequence (TR=10, TE=4, FA=30°, slice thickness=10 mm, matrix=128×256, FOV=16×25 cm-35×35 cm) repeated 128 times, once every 2.6 seconds. The first 10 images were obtained without contrast enhancement, after which an approximately 10 second bolus of Gadolinium-DTPA contrast agent (Magnevist, Berlex Laboratories) was administered intravenously. […] DCE-MRI was performed twice on each patient; once to obtain a pre-treatment baseline, and once 4-6 hrs after infusion of combretestatin. The slice position and orientation between days within each patient was carefully matched to obtain data from the same region of interest (ROI) in the tumor. Image processing was performed off-line using a custom software package that permitted a trained rater to view all 128 images in a study and to interactively identify the tumor ROI.

Compound: COc1ccc(/C=C\c2cc(OC)c(OC)c(OC)c2)cc1OP(=O)(O)O [CA4P, disodium combretastatin-A-4-3-O-phosphate]
- Post-treatment E (enhancement) (60 mg/m^2 (10 min)): 2.01 and 1.87
- Post-treatment Gpeak (gradient peak) (60 mg/m^2 (10 min)): 6.18 and 5.71
- Post-treatment tgp10 (time till gradient drops to 10% of Gpeak) (60 mg/m^2 (10 min)): 25.30 and 34.50
- Post-treatment tgp (time to gradient peak) (60 mg/m^2 (10 min)): 11.50 and 6.90
- Post-treatment E (enhancement) (60 mg/m^2 (1 hr)): 1.72 and 1.76 and 1.80 and 1.28 and 1.30
- Post-treatment Gpeak (gradient peak) (60 mg/m^2 (1 hr)): 4.93 and 3.57 and 3.47 and 2.19 and 1.48
- Post-treatment tgp10 (time till gradient drops to 10% of Gpeak) (60 mg/m^2 (1 hr)): 36.60 and 44.50 (2×) and 20.90 and 52.60
- Post-treatment tgp (time to gradient peak) (60 mg/m^2 (1 hr)): 7.86 (2×) and 15.70 and 13.10 and 11.70
- Change E (60 mg/m^2 (10 min)): −0.41 and 0.05
- Change Gpeak (60 mg/m^2 (10 min)): −1.12 and 0.92
- Change tgp (60 mg/m^2 (10 min)): 0.00
- Change tgp10 (60 mg/m^2 (10 min)): −13.80 and −4.60
- Change E (60 mg/m^2 (1 hr)): −0.27 and −0.06 and −0.13 and −0.22 and −0.20
- Change Gpeak (60 mg/m^2 (1 hr)): −3.76 and −1.05 and −1.53 and −1.44 and −1.75
- Change tgp (60 mg/m^2 (1 hr)): 0.00 and 2.60 and 5.24 and 2.62 and −4.00
- Change tgp10 (60 mg/m^2 (1 hr)): 18.30 and 5.20 and 10.50 and −15.70 and 21.20
